Results: patent US10238747B2 (priority 2010, dated 2019)
Where “and” joins values, the source holds several entries; their conditions need not be identical. Identical values can stand only once.

Columns and labels:
BALB/c and C57BL6 mice = settings: mouse, in vivo
Dendritic Cells = format: cell-based, Balb/c mice
CD4 = CD4 (Homo sapiens, UniProt P01730); settings: T cell co-stimulator molecule; cited from earlier work
[1] = 2-8° C.
CIA model of RA = settings: mouse, in vivo; cited from earlier work

## DLLKNGERIEKVEGGGSLLTEVETPIRNEWGCRCNDSSD [J-M2e]
BALB/c and C57BL6 mice
  serum IFN-y, secondary response (FIG. 2): increase
  serum IFN-γ response, normalized to adjuvant control (FIG. 1): higher amounts
  serum IL-10, secondary response (FIG. 2): increase
  serum IL-12 p40p70, secondary response (FIG. 2): increase
  serum IL-12p40 response, normalized to adjuvant control (FIG. 1): higher for C57BL6 mice
  serum IL-12p70, secondary response (FIG. 2): increase
  serum MCP-1 response, normalized to adjuvant control (FIG. 1): higher amounts

## lipopolysaccharide [LPS]
Dendritic Cells
  IL-12p70 Conc., R&D Systems (IL-12p70), Avg: 57.0 pg/mL and 78.5 pg/mL and 62.5 pg/mL
  TNF-a Conc., R&D Systems TNF-a, Avg: 5229.9 pg/mL and 3313.2 pg/mL and 3083.0 pg/mL
  TNF-a Conc., RayBio TNF-a, Avg: 3206.0 pg/mL and 2142.3 pg/mL and 2028.6 pg/mL

## (amino)-DGQEEKAGVVSTGLIGGG-(amide) (H-DGQEEKAGVVSTGLIGGG-NH2) [CEL-1000]
CD4
  binding to CD4: shown to bind to CD4
[1]
  stability of formulation (time extremely stable): over 2 years

## DLLKNGERIEKVEGGGNDATYQRTRALVRTG [J-NP]
BALB/c and C57BL6 mice
  serum IFN-y, secondary response (FIG. 2): sustained levels
  serum IFN-γ response, normalized to adjuvant control (FIG. 1): higher amounts
  serum IL-10, secondary response (FIG. 2): sustained levels
  serum IL-12 p40p70, secondary response (FIG. 2): sustained levels
  serum IL-12p40 response, normalized to adjuvant control (FIG. 1): higher for C57BL6 mice
  serum IL-12p70, secondary response (FIG. 2): sustained levels
  serum MCP-1 response, normalized to adjuvant control (FIG. 1): higher amounts

## DLLKNGERIEKVEGGGTGGKPGIAGFKGEQGPKGEP [CEL-2000]
CIA model of RA
  disease suppression: suppress disease over a 90 day period
  efficacy compared with Enbrel: more effective than Enbrel
  safety and tolerability: safe and well-tolerated
  serum IL-1 change: reduced
  serum IL-10 change: increased
  serum IL-12p40 change: decrease
  serum IL-12p70 change: increased
  serum MCP-1 change: reduced
  serum TNF-α change: reduced
Dendritic Cells
  IL-12p70 Conc., R&D Systems (IL-12p70), Avg: 67.9 pg/mL and 35.4 pg/mL and 58.2 pg/mL

## DLLKNGERIEKVEGGGYSVHQRIDVKDTKEALEKIEEEQNKSKKKA [JH]
Dendritic Cells
  TNF-a Conc., R&D Systems TNF-a, Avg: 905.7 pg/mL and 685.0 pg/mL and 830.9 pg/mL
  TNF-a Conc., RayBio TNF-a, Avg: 29.6 pg/mL

## DLLKNGERIEKVEGGGGLFGAIAGFIEGG [J-HA2 core 1]
BALB/c and C57BL6 mice
  primary response: antibody production (day 24 or 38) or cytokine responses (day 3, 10 and 24): very little response

## DLLKNGERIEKVEGGGLKSTQNAIDEITNKVN [J-HA2 core 2]
BALB/c and C57BL6 mice
  primary response: antibody production (day 24 or 38) or cytokine responses (day 3, 10 and 24): very little response
